Measurements from PMC6017563 (Molecules : A Journal of Synthetic Chemistry and Natural …, 2018).

Tests used:
[1] = in vivo; conditions: rat; for half-life: plasma
Procedure: The PK parameters for each experimental group were estimated by one-compartmental analysis using WinNonlin® software (version 7.0, Pharsight®, a Certara™ Company, Princeton, NJ, USA).
For the vehicle-administered groups (Groups 2 and 5), the above dispersion solution was administered instead of the drug (Table 5). Blood samples were directly drawn from the right jugular vein at predetermined time intervals before administration and at 0.25, 1, 2, 4, 8 h, 1, 2, 3, 4, 5, 6, 7, 11, and 14 days after the drug administration. Approximately 300 μL of blood was collected periodically in heparinized tubes via the catheter and was immediately centrifuged at 12,000 g for 5 min and then stored at −80 °C until analysis.
After being shaken with a vortex mixer for 3 min and centrifuged at 10,000× g for 5 min at room temperature, the upper supernatant was transferred to a clean tube and mixed with 20 µL of acetic acid and 900 µL of methylene chloride by vortex-mixing for 3 min and centrifugation at 10,000× g for 5 min at room temperature. The aqueous upper sample aliquots (10 µL) were directly injected into the UPLC–MS/MS system. Analyses were performed with the following UPLC–MS/MS system: Acquity™ UPLC system (Waters Corp., Milford, MA, USA), Mass Spectrometer (Xevo™ TQ-S, Waters Corp.), HALO peptide ES-C18 column (2.1 mm × 100 mm, 2.7 µm particle size, Advanced Material Technology, Wilmington, DE, USA). The mobile phase consisted of 1% acetic acid in water and 1% acetic acid in acetonitrile with gradient at a flow rate of 0.2 mL/min.
The mass spectrometric detection was performed using an electrospray ionization (ESI) source in positive ionization mode. The optimization of MS parameters was accomplished as follows: capillary voltage, 2.9 kV; ion source temperature, 150 °C; desolvation temperature, 350 °C; flow rate of cone gas, 150 L/h; flow rate of desolation gas, 600 L/h; and pressure of argon gas, 4.5 × 10^−3 mbar, respectively. […] Data acquisition and analysis were performed by Masslynx 4.1 software (Waters Corp., Milford, CT, USA).
The PK and PD analysis was performed by non-compartmental and compartment analysis using WinNonlin® software (version 7.0, Pharsight®, a Certara™ Company, Princeton, NJ, USA). The maximum plasma concentration (Cmax) and the time to reach Cmax (Tmax) were measured by visual observation of the individual plasma concentration–time curve. The AUC0–∞ was integrated by the linear trapezoidal rule from time zero to the final measured concentration and was extrapolated from the final measured concentration to infinity. […] The elimination rate constant k is a value used to describe the rate at which the drug is removed from the biological system. The volume of distribution (Vd), which is the theoretical volume in biological fluid, was calculated as CL divided by the k, and the bioavailability (F) was estimated as the AUC0–∞ obtained from SC administration divided by the AUC0–∞, obtained from IV administration. AUEC could be estimated by numerical integration over all segments of the effect-time curve by the trapezoidal rule without extrapolation to infinity. Because the endogenous testosterone was used as a PD marker in this study, the AUEC value subtracted from the baseline AUEC was used for data analysis.
The PK–PD modeling was conducted to describe the PK–PD relationship, and to estimate model parameters using Berkeley Madonna software (ver. 8.3.14). Berkeley Madonna software is a useful tool for modeling and analysis of various biological systems by solving the various differential equations. […] Consequently, the PD model was established in two steps. First, the baseline model was developed by using the baseline profiles of the vehicle-administered control group. Second, the drug-effect model was established based on the parameters that were estimated from the baseline model.

[2] = system: testosterone in plasma; test: Testosterone-suppressive effect (plasma testosterone, AUEC, PK-PD model), normal rats; type: in vivo; conditions: Wistar, baseline AUEC subtracted, mean ± SE, n = 5
Text: Leuprolide is a GnRH agonist for the treatment of prostate cancer which is a target disease in this study. In the label of the Lucrin depot, this is indicated for palliative treatment of advanced prostatic cancer. Therefore, we used the testosterone concentration as a PD marker of prostate cancer, and plasma testosterone is one of qualified biomarkers used as outcomes in the therapeutic area of oncology. Since most of the PD responses are expressed as a concentration profile of endogenous substances, it is difficult to calculate the value as a general trapezoidal rule. Scheff et al. introduced several methods for calculating AUEC when baselines differ. In this study, drug-specific AUEC was calculated by subtracting the baseline AUEC from the AUEC calculated by a general method, and these drug-specific AUECs were calculated by dividing them into positive AUECs and negative AUECs. […] There were significant differences between positive and negative AUEC in all experimental groups. When absolute values of positive and negative AUEC were compared, negative AUEC was more than three times higher. […] However, there was no significant difference in AUEC between each group on formulation, species and route of administration. This estimation of AUEC means that it could be used as a method for evaluating the formulation.
The PK–PD model, which describes the mechanism of negative feedback of leuprolide, was selected based on leuprolide mechanism characteristics and biomarker characteristics. […] The equations of the baseline model are as follows:(11) dR/dt = kin−kout·R (12) R0, wistar = 4.353 (13) R0,Iar:COP = 4.094 where kin and kout represent the apparent zero-order rate constant for the production of response and the first-order rate constant for the loss of response, respectively. These were estimated by curve fitting with the vehicle-administered group and used as the basic parameters of the drug-effect model described below (Group 2).
For this, several PD models were attempted, and the final PD model decided on was the tolerance model including the feedback compartment.
The plasma concentration of testosterone in plasma samples of each group was quantified using testosterone enzyme-linked immunosorbent assay (ELISA) kits (R&D Systems, Minneapolis, MN, USA). […]
Determination of the testosterone concentration was performed on using the validated Parameter^TM Testosterone Assay (R&D Systems, Minneapolis, MN, USA) and its process. […] The reaction was stopped when 50 μL of stop solution (2N sulfuric acid) was added, and the optical density of each well was measured using SynergyMX (BioTek, Winooski, VT, USA). All plasma samples were measured twice. […]

[3] = Group 1, leuprolide solution 0.1 mg/kg IV
[4] = Group 3, leuprolide solution 0.1 mg/kg SC

AUC(0-inf) ([1]; Wistar, in vivo, iv, 0.1 mg/kg): 106 ± 17.3 ng·h/mL | AUC(0-t) ([1]; Wistar, in vivo, iv, 0.1 mg/kg): 103 ± 16.9 ng·h/mL | C0 ([1]; Wistar, in vivo, iv, 0.1 mg/kg): 97.1 ± 13 ng/mL | Vd ([1]; Wistar, in vivo, iv, 0.1 mg/kg): 0.193 ± 0.0542 L | clearance ([1]; Wistar, in vivo, iv, 0.1 mg/kg): 4.14 mL/min | AUC(0-inf) ([1]; Wistar, in vivo, sc, 0.1 mg/kg): 53.3 ± 9.96 ng·h/mL | AUC(0-t) ([1]; Wistar, in vivo, sc, 0.1 mg/kg): 51.2 ± 9.56 ng·h/mL | Cmax ([1]; Wistar, in vivo, sc, 0.1 mg/kg): 41.5 ± 4.61 ng/mL | bioavailability ([1]; Wistar, in vivo, sc, 0.1 mg/kg): 50.6% | half-life ([1]; Wistar, iv, 0.1 mg/kg): 31.2 ± 6 min | half-life ([1]; Wistar, sc, 0.1 mg/kg): 39.6 ± 1.8 min | CL ([1]; in vivo): 514.46 ± 40.10 mL/h | F (bioavailability) ([1]; in vivo): 50.6% | Vd ([1]; in vivo): 0.4874 ± 0.02902 L
Compound: CCNC(=O)[C@@H]1CCCN1C(=O)[C@H](CCCNC(=N)N)NC(=O)[C@H](CC(C)C)NC(=O)[C@@H](CC(C)C)NC(=O)[C@H](Cc1ccc(O)cc1)NC(=O)[C@H](CO)NC(=O)[C@H](Cc1c[nH]c2ccccc12)NC(=O)[C@H](Cc1c[nH]cn1)NC(=O)[C@@H]1CCC(=O)N1 [leuprolide, Leuprolide (Pyr-His-Trp-Ser-Tyr-D-Leu-Leu-Arg-Pro-NHEt)]
Negative AUEC (drug-specific, testosterone-suppressive effect) [2, 3]: −1404.30 ± 287.31 | Positive AUEC (drug-specific, testosterone flare-up effect) [2, 3]: 208.24 ± 52.30 | Negative AUEC (drug-specific, testosterone-suppressive effect) [2, 4]: −775.98 ± 289.13 | Positive AUEC (drug-specific, testosterone flare-up effect) [2, 4]: 220.87 ± 39.56
